Measurements as given in the NIST ThermoML archive (doi:10.1016/j.jct.2006.01.012).

Conditions: Liquid; for viscosity: Capillary tube (Ostwald / Ubbelohde) method; for mass density: isochoric method

CCCCCCCC [octane]
Conditions | mass density [kg/m3] | viscosity [mPa·s]
298.24 K, 100 kPa | – | 0.508
301.84 K, 100 kPa | 695.24 | –
308.72 K, 5000 kPa | – | 0.4786
308.72 K, 10000 kPa | – | 0.5043
311.89 K, 4680 kPa | 691.6 | –
311.89 K, 10642 kPa | 697.4 | –
316.49 K, 100 kPa | 683.55 | –
323.93 K, 100 kPa | – | 0.3829
329.76 K, 100 kPa | 672.69 | –
340.94 K, 100 kPa | 663.24 | –
348.64 K, 100 kPa | – | 0.3034
349.46 K, 5000 kPa | – | 0.3187
349.46 K, 10000 kPa | – | 0.3364
358.76 K, 100 kPa | 648.1 | –
367.61 K, 5873 kPa | 648.8 | –
367.61 K, 11461 kPa | 656.2 | –
394.81 K, 5000 kPa | – | 0.2197
394.81 K, 10000 kPa | – | 0.2334
436.86 K, 5000 kPa | – | 0.1672
436.86 K, 10000 kPa | – | 0.1799
437.97 K, 6430 kPa | 589.6 | –
437.97 K, 11084 kPa | 599.5 | –
467.46 K, 5000 kPa | – | 0.1338
467.46 K, 10000 kPa | – | 0.1458
516.64 K, 5712 kPa | 505.4 | –
516.64 K, 9791 kPa | 525.2 | –

CCCCCCC [heptane]
Conditions | mass density [kg/m3] | viscosity [mPa·s]
298.24 K, 100 kPa | – | 0.388
302.46 K, 100 kPa | 675.91 | –
306.79 K, 5000 kPa | – | 0.3779
306.79 K, 10000 kPa | – | 0.4013
307.61 K, 4760 kPa | 676.1 | –
307.61 K, 11941 kPa | 683.2 | –
314.57 K, 100 kPa | 665.62 | –
323.93 K, 100 kPa | – | 0.2979
329.71 K, 100 kPa | 652.43 | –
337.54 K, 5000 kPa | – | 0.28
337.54 K, 10000 kPa | – | 0.2978
342.94 K, 100 kPa | 640.61 | –
348.64 K, 100 kPa | – | 0.2354
353.76 K, 100 kPa | 630.86 | –
369.35 K, 5000 kPa | – | 0.2116
369.35 K, 10000 kPa | – | 0.2259
387 K, 5783 kPa | 610 | –
387 K, 12460 kPa | 620.7 | –
407.85 K, 5000 kPa | – | 0.1595
407.85 K, 10000 kPa | – | 0.1718
449.64 K, 5000 kPa | – | 0.122
449.64 K, 10000 kPa | – | 0.1338
450.12 K, 4350 kPa | 543.7 | –
450.12 K, 11492 kPa | 564.4 | –
473.54 K, 5000 kPa | – | 0.1012
473.54 K, 10000 kPa | – | 0.113
500.47 K, 6791 kPa | 492.7 | –
500.47 K, 10720 kPa | 512.8 | –
